Reference: patent publication US9650423B2, “Long peptides of 22-45 amino acid residues that induce and/or enhance antigen specific immune responses” (priority 2000, dated 2017)
Residues, ends and D or L forms follow the SMILES beside them.

What was measured:
Ad5E1-expressing tumors = conditions: Toes et al., 1996a, 1996b; cited from earlier work
[1] = system: PBMC of HLA-DR1 positive blood donors; test: Proliferation of PBMC stimulated with long E6 peptides; type: cell-based, human; conditions: two HLA-DR1 positive donors, stimulated with pool of two 35-mer peptides covering E6 109-158
Protocol: Furthermore, PBMC of two different HLA-DR1 positive blood donors were stimulated with a pool of two long 35-mer peptides that together covered E6 109-158. […] A CD4+ T-helper clone derived from one of these bulks was analysed further and specifically proliferated and produced IFNγ when stimulated with HPV16 E6 peptide and HPV16 E6 protein in a HLA-DR1 restricted manner (FIG. 16).
FIGS. 16a-16d depict a peptide E6127-158 induced T-cell response that recognizes naturally processed Ag. PBMC from a healthy HLA-DR1 positive blood donor were stimulated four times with peptide E6127-158. FIGS. 16a and 16b are entitled E6 127-158 stimulated HLA-DR1+PBMC. Proliferation of the bulk T-cell culture (top, left, 16a) and IFNγ production (top, right, 16b) is depicted. FIGS. 16c and 16d are entitled E6 127-158 stimulated PBMC derived clone 9 HLA-DR restriction in proliferation and IFNγ production. The specific proliferation (bottom, left, 16c) and IFNγ production (bottom, right, 16d) of the T-helper clone, derived from the bulk T-cell culture, and HLA-restriction when stimulated with E6127-158, or E6 protein is depicted. (See, also, FIGS. 1a-1d and associated descriptions).

HLA-DR 1, 2, 3, 4 and 7 = test: HLA-DR-peptide binding assay, summary over the molecules tested; parameters: species or system human; conditions: E7 peptides tested on HLA-DR 1, 2, 3, 4 and 7
Protocol: The analysis of peptide binding to purified DR molecules was performed using N-terminally fluorescence-labelled standard peptides.

HLA-DR3 (DRB*0301) = test: HLA-DR-peptide binding assay; parameters: species or system human; conditions: HPV16-E7 22-mer peptides; >70 indicates undetectable binding; read-out: Binding DR3, IC50
HLA-DR1 (DRB*0101) = target: T1, HLA-DR1 (DRB*0101) (Homo sapiens, UniProt P01903+P01911, A100R/D57E/F55L/F60I/F76Y/I96L/L162R/M171V/P40L/Q125E/R42F/V115G/Y59C); test: biochemical; type: binding; conditions: read-out: Binding DR1, IC50
T1 construct: endogenous in cells; host or cells: LG2.1 B-lymphoblastic cell line, homozygous for HLA-DR

HLA-DR7 (DRB1*0701) = HLA-DR7 (DRB1*0701) (Homo sapiens, UniProt P01903+P01911, A100R/A102G/A103Q/D57E/D86V/E43K/F76Y/K127E/L162R/M171V/P40G/Q125H/Q99D/R33Q/R42Y/R54Q/S133A/S66F/T210M/V115G/Y107V/Y59L/Y89S); conditions: read-out: Binding DR7, IC50
[2] = system: HPV16 E7-specific T-helper clones; test: HPV16 E7-specific Th-clones: proliferation and IFNγ production; type: cell-based, human; conditions: Th-clone from HLA-DR15, 4 and DQ6,7 positive PBMC raised against peptide E741-62
Protocol: Peptide-specific T-cell bulk cultures were generated as described previously (van der Burg et al., 1999) using either the E7 22-mer or E7 35-mer peptides. Specific proliferation was measured by incubation of 50,000 responders with an equal amount of irradiated (30Gy) APC (autologous PBMC unless indicated otherwise) and peptide or protein as indicated. E7-peptide and -protein-specific bulk T-cells were cloned by limiting dilution as described previously (van der Burg et al., 1999).
To determine specific excretion of cytokines, T-cell clones were stimulated by incubation of 50.000 T-cells with an equal amount of APC (30Gy) together with 10 μg/ml peptide, control peptide, E7 protein or control protein as indicated. After 24 hours of incubation, supernatant was harvested and replicate wells were pooled. Cytokine production was measured by Enzyme-Linked Immunosorbent Assay (ELISA) as described previously (van der Burg et al., 1999).

HLA-DR2 (DRB1*0201) = test: HLA-DR-peptide binding assay; parameters: species or system human; conditions: HPV16-E7 22-mer peptides; >70 indicates undetectable binding; read-out: Binding DR2, IC50
HLA-DR4 (DRB*0401) = test: HLA-DR-peptide binding assay; parameters: species or system human; conditions: HPV16-E7 22-mer peptides; >70 indicates undetectable binding; read-out: Binding DR4, IC50

SGPSNTPPEI (minimal E1A-derived CTL epitope)
effect of peptide vaccination on outgrowth of Ad5E1-expressing tumors (Ad5E1-expressing tumors): enhances rather than inhibits the growth

E6 protein: recombinant HPV16-E6 protein produced in E. coli (DKKQRFHNIRGRWTGRCMSCCRSSRTRRETQL) [reference compound]
specific proliferation of PBMC [1]: proliferated specifically

E6 127-158: peptide, amino acids 127-158 of HPV16 E6 protein (DKKQRFHNIRGRWTGRCMSCCRSSRTRRETQL)
specific proliferation of PBMC [1]: proliferated specifically

E6 121-142: 22-mer peptide, amino acids 121-142 of HPV16 E6 protein (EKQRHLDKKQRFHNIRGRWTGR; UniProt P03126 121-142, looked up, fragment)
specific proliferation of PBMC [1]: proliferated specifically

CC[C@H](C)[C@H](NC(=O)[C@H](CC(N)=O)NC(=O)[C@H](Cc1ccc(O)cc1)NC(=O)[C@H](Cc1c[nH]cn1)NC(=O)[C@H](C)NC(=O)[C@H](CCCNC(=N)N)NC(=O)[C@H](CC(=O)O)NC(=O)[C@@H]1CCCN1C(=O)[C@H](CCC(=O)O)NC(=O)[C@H](C)NC(=O)[C@H](CCC(N)=O)NC(=O)CNC(=O)[C@H](C)NC(=O)[C@@H]1CCCN1)C(=O)N[C@H](C(=O)N[C@H](C(=O)N[C@@H](Cc1ccccc1)C(=O)N[C@@H](CS)C(=O)N[C@@H](CS)C(=O)N[C@@H](CCCCN)C(=O)N[C@@H](CS)C(=O)N[C@@H](CC(=O)O)C(=O)O)[C@@H](C)O)C(C)C [E7 41-62] (H-PAGQAEPDRAHYNIVTFCCKCD-OH; N-terminus and C-terminus assumed)
HLA-DR molecules bound (HLA-DR 1, 2, 3, 4 and 7): bound to DR1, 2, 3 and 4
IC50 (HLA-DR3 (DRB*0301)): 55 µM
IC50 (HLA-DR1 (DRB*0101)): 7.4 µM
IC50 (HLA-DR7 (DRB1*0701)): > 70 µM
response of HLA-DR15 restricted Th-clone to pulsed APC [2]: specifically respond
IC50 (HLA-DR2 (DRB1*0201)): 50 µM
IC50 (HLA-DR4 (DRB*0401)): 38 µM
